Source: US20240124442A1, “TRICYCLIC-AMIDO-BICYCLIC PRMT5 INHIBITORS” (AMGEN INC., priority 2021, published 2024)

Columns and labels:
[1] = tested on: HCT116 WT cells; test: HCT116 WT (parent) cell line proliferation / cell viability (CellTiter-Glo, 6 days); assay type: cell-based; conditions: Homo sapiens, HCT-116, 144 h, 6 days treatment
Method in brief: (§1)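 Isogenic HCT116 pair (parental and MTAP-knockout) in RPMI 1640 + 10% FBS, treated 6 days with 8–9-point 1:3 dilutions from 1 or 10 μM top, or 22-point 1:2 dilutions from 10 or 50 μM top. Viability by CellTiter-Glo luminescence; IC50 from 4-parameter logistic fit or sigmoidal fit with Hill slope fixed at −1.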

[2] = tested on: HCT116 MTAP null cells; test: HCT116 MTAP null cell line proliferation / cell viability (CellTiter-Glo, 6 days); assay type: cell-based; conditions: 144 h; HCT116 MTAP null cells, 6 days treatment, CellTiter-Glo cell viability; read-out: HCT-116 MTAP null IC50
Method in brief: as §1

| SMILES | IC50 [1] [nM] | IC50 [2] [nM] |
| --- | --- | --- |
| CN(C(=O)c1ccc2nc(N)c3c(cnn3C)c2c1)[C@@H]1COCc2cc(C#N)ccc21 [Example 509, 4-amino-N-((4S)-7-cyano-3,4-dihydro-1H-2-benzopyran-4-yl)-N,3-dimethyl-3H-pyrazolo[3,4-c]quinoline-8-carboxamide] | 8110 | 107 |
| CN(C(=O)c1ccc2nc(N)c3c(cnn3C)c2c1)[C@@H]1COCc2cc(C(F)(F)F)ccc21 [Example 510, 4-amino-N,3-dimethyl-N-((4S)-7-(trifluoromethyl)-3,4-dihydro-1H-2-benzopyran-4-yl)-3H-pyrazolo[3,4-c]quinoline-8-carboxamide] | 4590 | 48 |
| CN(C(=O)c1ccc2nc(N)c3c(cnn3C)c2c1)[C@@H]1COCc2cc(C(F)(F)F)ncc21 [Example 511, 4-amino-N,3-dimethyl-N-((4S)-7-(trifluoromethyl)-3,4-dihydro-1H-pyrano[4,3-c]pyridin-4-yl)-3H-pyrazolo[3,4-c]quinoline-8-carboxamide] | 17400 | 374 |
| CN(C(=O)c1ccc2nc(N)c3c(cnn3C)c2c1)[C@@H]1COCc2nc(C(F)(F)F)ccc21 [Example 512, 4-amino-N,3-dimethyl-N-((5S)-2-(trifluoromethyl)-5,8-dihydro-6H-pyrano[3,4-b]pyridin-5-yl)-3H-pyrazolo[3,4-c]quinoline-8-carboxamide] | 11100 | 123 |
| COc1ccc2c(n1)COC[C@H]2N(C)C(=O)c1cc2c(cc1F)nc(N)c1c2cnn1C [Example 513, 4-amino-7-fluoro-N-((5S)-2-methoxy-5,8-dihydro-6H-pyrano[3,4-b]pyridin-5-yl)-N,3-dimethyl-3H-pyrazolo[3,4-c]quinoline-8-carboxamide] | 10200 | 168 |
| CN(C(=O)c1cc2c(cc1F)nc(N)c1c2cnn1C)[C@@H]1COCc2cc(C(F)(F)F)ccc21 [Example 514, 4-amino-7-fluoro-N,3-dimethyl-N-((4S)-7-(trifluoromethyl)-3,4-dihydro-1H-2-benzopyran-4-yl)-3H-pyrazolo[3,4-c]quinoline-8-carboxamide] | 1520 | 68 |
| CN(C(=O)c1cc2c(cc1F)nc(N)c1c2cnn1C)[C@@H]1COCc2nc(C(F)(F)F)ccc21 [Example 515, 4-amino-7-fluoro-N,3-dimethyl-N-((5S)-2-(trifluoromethyl)-5,8-dihydro-6H-pyrano[3,4-b]pyridin-5-yl)-3H-pyrazolo[3,4-c]quinoline-8-carboxamide] | 3650 | 37 |
| Cn1ncc2c3cc(C(=O)N(C4CC4)[C@@H]4COCc5nc(C(F)(F)F)ccc54)c(F)cc3nc(N)c21 [Example 516, 4-amino-N-cyclopropyl-7-fluoro-3-methyl-N-((5S)-2-(trifluoromethyl)-5,8-dihydro-6H-pyrano[3,4-b]pyridin-5-yl)-3H-pyrazolo[3,4-c]quinoline-8-carboxamide] | 6520 | 105 |
| CC(C)CN(C(=O)c1cc2c(cc1F)nc(N)c1c2cnn1C)[C@@H]1COCc2nc(C(F)(F)F)ccc21 [Example 517, 4-amino-7-fluoro-3-methyl-N-(2-methylpropyl)-N-((5S)-2-(trifluoromethyl)-5,8-dihydro-6H-pyrano[3,4-b]pyridin-5-yl)-3H-pyrazolo[3,4-c]quinoline-8-carboxamide] | 342 | 18 |
| CC(C)CN(C(=O)c1cc2c(cc1F)nc(N)c1c2cnn1C)[C@H]1COCc2nc(C(F)(F)F)ccc21 [Example 518, 4-amino-7-fluoro-3-methyl-N-(2-methylpropyl)-N-((5R)-2-(trifluoromethyl)-5,8-dihydro-6H-pyrano[3,4-b]pyridin-5-yl)-3H-pyrazolo[3,4-c]quinoline-8-carboxamide] | 9330 | 965 |
| CN(C(=O)c1cc2c(cc1Cl)nc(N)c1c2cnn1C)[C@@H]1COCc2nc(C(F)(F)F)ccc21 [Example 519, 4-amino-7-chloro-N,3-dimethyl-N-((5S)-2-(trifluoromethyl)-5,8-dihydro-6H-pyrano[3,4-b]pyridin-5-yl)-3H-pyrazolo[3,4-c]quinoline-8-carboxamide] | 1390 | 27 |
| Cc1cc2nc(N)c3c(cnn3C)c2cc1C(=O)N(C)[C@@H]1COCc2nc(C(F)(F)F)ccc21 [Example 520, 4-amino-N,3,7-trimethyl-N-((5S)-2-(trifluoromethyl)-5,8-dihydro-6H-pyrano[3,4-b]pyridin-5-yl)-3H-pyrazolo[3,4-c]quinoline-8-carboxamide] | 2420 | 25 |
| Cc1nn(C)c2c1c(N)nc1cnc(C(=O)N(C)[C@@H]3COCc4cc(C#N)ccc43)cc12 [Example 521, 4-amino-N-((4S)-7-cyano-3,4-dihydro-1H-2-benzopyran-4-yl)-N,1,3-trimethyl-1H-pyrazolo[4,3-c][1,7]naphthyridine-8-carboxamide] | 14100 | 168 |
| CN(C(=O)c1ccc2nc(N)c3cnn(C)c3c2c1)[C@@H]1COc2cc(C3CC3)ccc21 [Example 615, 4-amino-N-((3S)-6-cyclopropyl-2,3-dihydro-1-benzofuran-3-yl)-N,1-dimethyl-1H-pyrazolo[4,3-c]quinoline-8-carboxamide] | 1310 | 14 |
| CN(C(=O)c1ccc2nc(N)c3cnn(C)c3c2c1)[C@@H]1COc2cc(-c3ccn(C)c3)ccc21 [Example 616, 4-amino-N,1-dimethyl-N-((3S)-6-(1-methyl-1H-pyrrol-3-yl)-2,3-dihydro-1-benzofuran-3-yl)-1H-pyrazolo[4,3-c]quinoline-8-carboxamide] | 3670 | 32 |
| CN(C(=O)c1ccc2nc(N)c3cnn(C)c3c2c1)[C@@H]1COc2cc(C3=CCCCC3)ccc21 [Example 617, 4-amino-N-((3S)-6-(1-cyclohexen-1-yl)-2,3-dihydro-1-benzofuran-3-yl)-N,1-dimethyl-1H-pyrazolo[4,3-c]quinoline-8-carboxamide] | 1650 | 55 |
| CN(C(=O)c1ccc2nc(N)c3cnn(C)c3c2c1)[C@@H]1COc2cc(C3=CCOCC3)ccc21 [Example 618, 4-amino-N-((3S)-6-(3,6-dihydro-2H-pyran-4-yl)-2,3-dihydro-1-benzofuran-3-yl)-N,1-dimethyl-1H-pyrazolo[4,3-c]quinoline-8-carboxamide] | 786 | 10 |
| CN(C(=O)c1ccc2nc(N)c3cnn(C)c3c2c1)[C@@H]1COc2cc(C3=CCC(F)(F)CC3)ccc21 [Example 619, 4-amino-N-((3S)-6-(4,4-difluoro-1-cyclohexen-1-yl)-2,3-dihydro-1-benzofuran-3-yl)-N,1-dimethyl-1H-pyrazolo[4,3-c]quinoline-8-carboxamide] | 649 | 17 |
| CN(C(=O)c1ccc2nc(N)c3cnn(C)c3c2c1)[C@@H]1COc2cc(-c3cnn(C(F)(F)F)c3)ccc21 [Example 620, 4-amino-N,1-dimethyl-N-((3S)-6-(1-(trifluoromethyl)-1H-pyrazol-4-yl)-2,3-dihydro-1-benzofuran-3-yl)-1H-pyrazolo[4,3-c]quinoline-8-carboxamide] | 634 | 6 |
| CCN(C(=O)c1ccc2nc(N)c3c(c2c1)CO[C@@H]3C)[C@@H]1COCc2cc(C3CC3)ccc21 [Example 621, (3R)-4-amino-N-((4S)-7-cyclopropyl-3,4-dihydro-1H-2-benzopyran-4-yl)-N-ethyl-3-methyl-1,3-dihydrofuro[3,4-c]quinoline-8-carboxamide] | 1040 | 25 |
| CN(C(=O)c1ccc2nc(N)c3cnn(C)c3c2c1)[C@@H]1COc2cc(-c3cn[nH]c3)ccc21 [Example 622, (S)—N-(6-(1H-pyrazol-4-yl)-2,3-dihydrobenzofuran-3-yl)-4-amino-N,1-dimethyl-1H-pyrazolo[4,3-c]quinoline-8-carboxamide] | 877 | 14 |
| CN(C(=O)c1ccc2nc(N)c3cnn(C)c3c2c1)[C@@H]1COc2cc(C3COC3)ccc21 [Example 625, 4-amino-N,1-dimethyl-N-((3S)-6-(3-oxetanyl)-2,3-dihydro-1-benzofuran-3-yl)-1H-pyrazolo[4,3-c]quinoline-8-carboxamide] | 2320 | 29 |
| CN(C(=O)c1ccc2nc(N)c3cnn(C)c3c2c1)[C@@H]1COc2cc(-c3ccoc3)ccc21 [Example 626, 4-amino-N-((3S)-6-(3-furanyl)-2,3-dihydro-1-benzofuran-3-yl)-N,1-dimethyl-1H-pyrazolo[4,3-c]quinoline-8-carboxamide] | 384 | 6 |
| CN(C(=O)c1ccc2nc(N)c3cnn(C)c3c2c1)[C@@H]1COc2cc(-c3ccncc3)ccc21 [Example 627, 4-amino-N,1-dimethyl-N-((3S)-6-(4-pyridinyl)-2,3-dihydro-1-benzofuran-3-yl)-1H-pyrazolo[4,3-c]quinoline-8-carboxamide] | 136 | 4 |
| CN(C(=O)c1ccc2nc(N)c3cnn(C)c3c2c1)[C@@H]1COc2cc(-c3cccnc3)ccc21 [Example 628, 4-amino-N,1-dimethyl-N-((3S)-6-(3-pyridinyl)-2,3-dihydro-1-benzofuran-3-yl)-1H-pyrazolo[4,3-c]quinoline-8-carboxamide] | 511 | 5 |
| CN(C(=O)c1ccc2nc(N)c3cnn(C)c3c2c1)[C@@H]1COc2cc(-c3cnn(C)c3)ccc21 [Example 629, 4-amino-N,1-dimethyl-N-((3S)-6-(1-methyl-1H-pyrazol-4-yl)-2,3-dihydro-1-benzofuran-3-yl)-1H-pyrazolo[4,3-c]quinoline-8-carboxamide] | 691 | 4 |
